Measured values: ChEMBL document CHEMBL3885861, “Open TG-GATES”

Species on record: Rattus norvegicus
Experiment: Open TG-GATES - Regimen: Single
Format: toxicity, organism-based, Sprague-Dawley
Design: regimen Single, gender Male, age 6 weeks
Settings: in vivo, po, 600 mg/kg, route gavage, dose level High; for ALP / ALT / AST / BUN / CRE / Ca / Cl / DBIL / GLC / IP / K / LDH / Na / PL / RALB / TBIL / TC / TG / TP / gamma-GTP / A/G: tissue Plasma; for APTT / Bas / Eos / Fbg / Hb / Ht / Lym / MCH / MCHC / MCV / Mono / Neu / PT / Plat / RBC / Ret / WBC: tissue Blood; for KIDNEY_L / KIDNEY_R / KIDNEY_TOTAL: tissue Kidney; for LIVER: tissue Liver

Question: `O=C1CN(/N=C/c2ccc([N+](=O)[O-])o2)C(=O)N1` [NITROFURANTOIN] was tested. Which ALP (3 h) did it give?
Answer: 1226.6 IU/L

Question: What about the ALT (3 h) of the same compound?
Answer: 36 IU/L

Question: And the AST (3 h)?
Answer: 64.4 IU/L

Question: What about the BUN (3 h) of the same compound?
Answer: 12 mg/dL

Question: What about the CRE (3 h) of the same compound?
Answer: 0.5 mg/dL

Question: What about the Ca (3 h) of the same compound?
Answer: 11.6 mg/dL

Question: And the Cl (3 h)?
Answer: 104 meq/L

Question: What about the DBIL (3 h) of the same compound?
Answer: 0 mg/dL

Question: What about the GLC (3 h) of the same compound?
Answer: 198.4 mg/dL

Question: And the IP (3 h)?
Answer: 10.1 mg/dL

Question: And the K (3 h)?
Answer: 4 meq/L

Question: And the LDH (3 h)?
Answer: 91.2 IU/L

Question: And the Na (3 h)?
Answer: 139.6 meq/L

Question: And the PL (3 h)?
Answer: 146 mg/dL

Question: What about the RALB (3 h) of the same compound?
Answer: 4.1 g/dL

Question: What about the TBIL (3 h) of the same compound?
Answer: 0.034 mg/dL

Question: What about the TC (3 h) of the same compound?
Answer: 90.8 mg/dL

Question: And the TG (3 h)?
Answer: 54.8 mg/dL

Question: What about the TP (3 h) of the same compound?
Answer: 5.9 g/dL

Question: And the gamma-GTP (3 h)?
Answer: 1 IU/L

Question: And the TERMINAL_BW (6 h)?
Answer: 204.9 g

Question: What about the APTT (6 h) of the same compound?
Answer: 16 s

Question: What about the Bas (6 h) of the same compound?
Answer: 0%

Question: What about the Eos (6 h) of the same compound?
Answer: 1%

Question: What about the Fbg (6 h) of the same compound?
Answer: 228.8 mg/dL

Question: What about the Hb (6 h) of the same compound?
Answer: 13.7 g/dL

Question: What about the Ht (6 h) of the same compound?
Answer: 41.9%

Question: What about the Lym (6 h) of the same compound?
Answer: 74.8%

Question: And the MCH (6 h)?
Answer: 20.9 pg

Question: What about the MCHC (6 h) of the same compound?
Answer: 32.8%

Question: What about the MCV (6 h) of the same compound?
Answer: 63.9 fL

Question: What about the Mono (6 h) of the same compound?
Answer: 5.8%

Question: What about the Neu (6 h) of the same compound?
Answer: 18.6%

Question: And the PT (6 h)?
Answer: 11.8 s

Question: And the Plat (6 h)?
Answer: 115.3 x10_4/uL

Question: And the RBC (6 h)?
Answer: 656.6 x10_4/ul

Question: And the Ret (6 h)?
Answer: 7.9%

Question: And the WBC (6 h)?
Answer: 63.6 x10_2/uL

Question: And the KIDNEY_L (6 h)?
Answer: 0.9 g

Question: What about the KIDNEY_R (6 h) of the same compound?
Answer: 0.9 g

Question: What about the KIDNEY_TOTAL (6 h) of the same compound?
Answer: 1.9 g

Question: And the LIVER (6 h)?
Answer: 8.7 g

Question: What about the A/G (6 h) of the same compound?
Answer: 2.4

Question: What about the ALP (6 h) of the same compound?
Answer: 1281.4 IU/L

Question: And the ALT (6 h)?
Answer: 34.6 IU/L

Question: And the AST (6 h)?
Answer: 64.4 IU/L

Question: And the BUN (6 h)?
Answer: 12.6 mg/dL

Question: And the CRE (6 h)?
Answer: 0.5 mg/dL

Question: And the Ca (6 h)?
Answer: 11.5 mg/dL

Question: What about the Cl (6 h) of the same compound?
Answer: 104.2 meq/L

Question: What about the DBIL (6 h) of the same compound?
Answer: 0.008 mg/dL

Question: What about the GLC (6 h) of the same compound?
Answer: 193 mg/dL

Question: And the IP (6 h)?
Answer: 9 mg/dL

Question: And the K (6 h)?
Answer: 4.3 meq/L

Question: And the LDH (6 h)?
Answer: 74.4 IU/L

Question: What about the Na (6 h) of the same compound?
Answer: 137.8 meq/L

Question: What about the PL (6 h) of the same compound?
Answer: 144.2 mg/dL

Question: What about the RALB (6 h) of the same compound?
Answer: 4.1 g/dL

Question: And the TBIL (6 h)?
Answer: 0.04 mg/dL

Question: What about the TC (6 h) of the same compound?
Answer: 99.6 mg/dL

Question: What about the TG (6 h) of the same compound?
Answer: 33 mg/dL

Question: And the TP (6 h)?
Answer: 5.8 g/dL

Question: And the gamma-GTP (6 h)?
Answer: 0 IU/L

Question: What about the TERMINAL_BW (9 h) of the same compound?
Answer: 205.1 g

Question: What about the APTT (9 h) of the same compound?
Answer: 16.6 s

Question: And the Bas (9 h)?
Answer: 0%

Question: What about the Eos (9 h) of the same compound?
Answer: 1%

Question: And the Fbg (9 h)?
Answer: 229 mg/dL

Question: And the Hb (9 h)?
Answer: 13.5 g/dL

Question: And the Ht (9 h)?
Answer: 41.1%

Question: What about the Lym (9 h) of the same compound?
Answer: 71.4%

Question: And the MCH (9 h)?
Answer: 21.2 pg

Question: What about the MCHC (9 h) of the same compound?
Answer: 32.9%

Question: What about the MCV (9 h) of the same compound?
Answer: 64.6 fL

Question: And the Mono (9 h)?
Answer: 8%

Question: What about the Neu (9 h) of the same compound?
Answer: 19.8%

Question: And the PT (9 h)?
Answer: 11.7 s

Question: And the Plat (9 h)?
Answer: 127.2 x10_4/uL

Question: And the RBC (9 h)?
Answer: 636.6 x10_4/ul

Question: What about the Ret (9 h) of the same compound?
Answer: 7.2%

Question: And the WBC (9 h)?
Answer: 77 x10_2/uL

Question: And the KIDNEY_L (9 h)?
Answer: 1 g

Question: And the KIDNEY_R (9 h)?
Answer: 0.9 g

Question: What about the KIDNEY_TOTAL (9 h) of the same compound?
Answer: 1.9 g

Question: And the LIVER (9 h)?
Answer: 8.9 g

Question: What about the A/G (9 h) of the same compound?
Answer: 2.3

Question: And the ALP (9 h)?
Answer: 1100.8 IU/L

Question: What about the ALT (9 h) of the same compound?
Answer: 28.6 IU/L

Question: And the AST (9 h)?
Answer: 59.4 IU/L

Question: What about the BUN (9 h) of the same compound?
Answer: 12.6 mg/dL

Question: And the CRE (9 h)?
Answer: 0.4 mg/dL

Question: And the Ca (9 h)?
Answer: 11.3 mg/dL

Question: What about the Cl (9 h) of the same compound?
Answer: 104.2 meq/L

Question: And the DBIL (9 h)?
Answer: 0.01 mg/dL

Question: And the GLC (9 h)?
Answer: 194 mg/dL

Question: And the IP (9 h)?
Answer: 9.2 mg/dL

Question: What about the K (9 h) of the same compound?
Answer: 4.4 meq/L

Question: And the LDH (9 h)?
Answer: 82.6 IU/L

Question: What about the Na (9 h) of the same compound?
Answer: 137.4 meq/L

Question: What about the PL (9 h) of the same compound?
Answer: 160.4 mg/dL

Question: What about the RALB (9 h) of the same compound?
Answer: 4.1 g/dL

Question: What about the TBIL (9 h) of the same compound?
Answer: 0.042 mg/dL

Question: And the TC (9 h)?
Answer: 104.4 mg/dL

Question: What about the TG (9 h) of the same compound?
Answer: 46 mg/dL

Question: And the TP (9 h)?
Answer: 5.9 g/dL

Question: And the gamma-GTP (9 h)?
Answer: 1 IU/L

Question: And the TERMINAL_BW (24 h)?
Answer: 201.7 g

Question: And the APTT (24 h)?
Answer: 16.3 s

Question: And the Bas (24 h)?
Answer: 0%

Question: And the Eos (24 h)?
Answer: 1.6%

Question: And the Fbg (24 h)?
Answer: 238 mg/dL

Question: And the Hb (24 h)?
Answer: 13.7 g/dL

Question: What about the Ht (24 h) of the same compound?
Answer: 41.6%

Question: And the Lym (24 h)?
Answer: 78.8%

Question: And the MCH (24 h)?
Answer: 21.2 pg

Question: What about the MCHC (24 h) of the same compound?
Answer: 33%

Question: And the MCV (24 h)?
Answer: 64.4 fL

Question: And the Mono (24 h)?
Answer: 8.2%

Question: And the Neu (24 h)?
Answer: 11.8%

Question: What about the PT (24 h) of the same compound?
Answer: 11.8 s

Question: What about the Plat (24 h) of the same compound?
Answer: 131.1 x10_4/uL

Question: What about the RBC (24 h) of the same compound?
Answer: 647 x10_4/ul

Question: And the Ret (24 h)?
Answer: 6.5%

Question: And the WBC (24 h)?
Answer: 54.6 x10_2/uL

Question: What about the KIDNEY_L (24 h) of the same compound?
Answer: 1 g

Question: And the KIDNEY_R (24 h)?
Answer: 1 g

Question: What about the KIDNEY_TOTAL (24 h) of the same compound?
Answer: 1.9 g

Question: And the LIVER (24 h)?
Answer: 8.3 g

Question: And the A/G (24 h)?
Answer: 2.2

Question: And the ALP (24 h)?
Answer: 1073.2 IU/L

Question: And the ALT (24 h)?
Answer: 21.4 IU/L

Question: What about the AST (24 h) of the same compound?
Answer: 54.8 IU/L

Question: And the BUN (24 h)?
Answer: 11.4 mg/dL

Question: What about the CRE (24 h) of the same compound?
Answer: 0.5 mg/dL

Question: And the Ca (24 h)?
Answer: 11.4 mg/dL

Question: And the Cl (24 h)?
Answer: 108 meq/L

Question: And the DBIL (24 h)?
Answer: 0.01 mg/dL

Question: And the GLC (24 h)?
Answer: 170.2 mg/dL

Question: What about the IP (24 h) of the same compound?
Answer: 8.9 mg/dL

Question: What about the K (24 h) of the same compound?
Answer: 4.1 meq/L

Question: What about the LDH (24 h) of the same compound?
Answer: 91.2 IU/L

Question: What about the Na (24 h) of the same compound?
Answer: 140.2 meq/L

Question: What about the PL (24 h) of the same compound?
Answer: 138.4 mg/dL

Question: And the RALB (24 h)?
Answer: 4 g/dL

Question: And the TBIL (24 h)?
Answer: 0.04 mg/dL

Question: What about the TC (24 h) of the same compound?
Answer: 95.6 mg/dL

Question: And the TG (24 h)?
Answer: 42.6 mg/dL

Question: And the TP (24 h)?
Answer: 5.9 g/dL

Question: And the gamma-GTP (24 h)?
Answer: 0 IU/L
